The results in this text go back to patent publication US12466809B2, “CDK2/5 degraders and uses thereof” (DANA-FARBER CANCER INSTITUTE, INC., priority 2019, dated 2025).

In one assay the target is CDK5/p25 (Homo sapiens (Human), UniProt Q00535). In words: Invitrogen Z'-LYTE kinase assay CDK5/p25 (assay ID 318, Km app, 10-point titration). It counts as biochemical. To be noted: CDK5/p25, Km app ATP. The text has this: (§1) CDK2 and CDK5 IC50 data were attained through the use of Invitrogen™ commercial assays. The method for CDK2 (assay ID: 315, kinase|Z'-LYTE™|CDK2/Cyclin A|Km app) used a 10-point titration. The method for CDK5 (assay ID: 318, kinase|Z'-LYTE™|CDK5/p25|Km app) used a 10-point titration.

In the next assay the target is CDK2 (Homo sapiens (Human), UniProt P24941). As to the kind of experiment: Knockdown of CDK2/5 in OVCAR8 cells, immunoblot: CDK2. It counts as cell-based. To be noted: various concentrations, 6 hours. (A western blot detects proteins with antibodies after separation by electrophoresis.)
For another assay, the target named is CDK2/Cyclin A (Homo sapiens (Human), UniProt P24941). As to the kind of experiment: Invitrogen Z'-LYTE kinase assay CDK2/Cyclin A (assay ID 315, Km app, 10-point titration). The format is biochemical. The following applies: Km app ATP.
From the text: as §1

For another assay, the target named is CDK5 (Homo sapiens (Human), UniProt Q00535). In words: Knockdown of CDK2/5 in OVCAR8 cells, immunoblot: CDK5. The format is cell-based. The following applies: various concentrations, 6 hours.
Another assay has as its target CDK9 (Homo sapiens (Human), UniProt P50750). In words: Knockdown of CDKs in Jurkat cells, immunoblot: CDK9. The format is cell-based. To be noted: 0.25 μM, 6 hours. How it is done:
Jurkat acute T cell leukemia cells were treated with 0, 0.1 μM, 1 μM, and 10 μM of compounds 1-7 or 0.25 μM THAL-SNS-032 (a known CDK9 degrader, as a positive control for CDK9 degradation) for 6 hours, and then lysed and immunoblotted with antibodies to CDK1, CDK2, CDK5, CDK7, CDK9, CDK12, CDK13 and R-Actin (FIG. 1A-FIG. 2B).

pIC50: −log10 of the molar value.

CDK9, sequence (P50750 whole entry): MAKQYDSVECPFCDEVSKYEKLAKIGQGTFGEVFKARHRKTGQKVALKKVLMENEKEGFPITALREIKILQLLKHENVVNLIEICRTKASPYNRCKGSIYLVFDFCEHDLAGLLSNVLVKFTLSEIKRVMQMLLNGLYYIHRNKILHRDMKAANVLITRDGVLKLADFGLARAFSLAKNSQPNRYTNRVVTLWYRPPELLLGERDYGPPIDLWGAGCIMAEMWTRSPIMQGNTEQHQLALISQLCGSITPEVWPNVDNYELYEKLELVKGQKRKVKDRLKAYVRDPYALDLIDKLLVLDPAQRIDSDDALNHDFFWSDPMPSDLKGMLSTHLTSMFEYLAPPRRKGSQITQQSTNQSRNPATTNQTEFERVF
CDK5/p25, sequence (Q00535 whole entry): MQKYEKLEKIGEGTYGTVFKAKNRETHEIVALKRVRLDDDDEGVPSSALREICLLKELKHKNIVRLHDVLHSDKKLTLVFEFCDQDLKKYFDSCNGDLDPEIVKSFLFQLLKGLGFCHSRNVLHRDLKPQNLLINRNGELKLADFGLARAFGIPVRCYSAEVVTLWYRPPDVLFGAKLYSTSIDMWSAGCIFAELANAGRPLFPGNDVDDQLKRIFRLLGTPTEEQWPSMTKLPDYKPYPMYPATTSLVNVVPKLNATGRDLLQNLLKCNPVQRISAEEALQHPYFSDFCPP
CDK5/p25, sequence (Q15078 99-307 partner): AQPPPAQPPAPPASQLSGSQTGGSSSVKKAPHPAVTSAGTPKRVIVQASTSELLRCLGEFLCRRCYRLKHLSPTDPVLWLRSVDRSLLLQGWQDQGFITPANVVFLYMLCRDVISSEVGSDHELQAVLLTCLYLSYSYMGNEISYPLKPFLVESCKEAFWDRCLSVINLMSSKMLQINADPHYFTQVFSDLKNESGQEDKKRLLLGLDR
CDK5, sequence (Q00535 whole entry): as the sequence (Q00535 whole entry) above

As usually defined, the pIC50 is the negative decadic logarithm of the IC50, by convention in mol/L. Regarding `NC(=O)c1c(F)cccc1Nc1nc(NC2CCN(S(=O)(=O)CCNC(=O)CCCCCCCCOc3cccc4c3C(=O)N(C3CCC(=O)NC3=O)C4=O)CC2)ncc1Br` (centres unmarked) [Compound 5, 2-((5-bromo-2-((1-((2-(9-((2-(2,6-dioxopiperidin-3-yl)-1,3-dioxoisoindolin-4-yl)oxy)nonanamido)ethyl)sulfonyl)piperidin-4-yl)amino)pyrimidin-4-yl)amino)-6-fluorobenzamide], the negative-log IC50 (pIC50) against CDK5/p25 is 7.79; on CDK2/Cyclin A, 7.54. Further, the “knockdown of CDK2” value at CDK2 is “selective knockdown”. Besides, on CDK5, the “knockdown of CDK5” value is given as “selective knockdown”.
With `CC(C)(C)c1cnc(CSc2cnc(NC(=O)C3CCN(CC(=O)NCCOCCOCCOCCNc4cccc5c4C(=O)N(C4CCC(=O)NC4=O)C5=O)CC3)s2)o1` (centres unmarked) [THAL-SNS-032], the CDK9 degradation entry on CDK9 is listed as “induced CDK9 degradation”.
